This assay has as its target T1, human CXCR6 (Homo sapiens, UniProt O00574).
T1 construct: expressed in transfected cells
As to the kind of experiment: Radioligand Binding Assay (125I-CXCL16 displacement). The note with it: L1.2 cells stably transfected with human CXCR6 cDNA, 0.1 nM 125I-CXCL16, 4° C., three-hour incubation; read-out: Potency (IC50). In short, it runs like this: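 L1.2 cells stably expressing human CXCR6 incubated 3 h at 4 °C in HBSS/0.1% BSA with 0.1 nM 125I-CXCL16 and graded compound concentrations. Bound radioactivity collected by filtration and counted; IC50 from 3-parameter nonlinear regression.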

The IC50 is the concentration needed to halve the response being measured.

T1 sequence (O00574 whole entry): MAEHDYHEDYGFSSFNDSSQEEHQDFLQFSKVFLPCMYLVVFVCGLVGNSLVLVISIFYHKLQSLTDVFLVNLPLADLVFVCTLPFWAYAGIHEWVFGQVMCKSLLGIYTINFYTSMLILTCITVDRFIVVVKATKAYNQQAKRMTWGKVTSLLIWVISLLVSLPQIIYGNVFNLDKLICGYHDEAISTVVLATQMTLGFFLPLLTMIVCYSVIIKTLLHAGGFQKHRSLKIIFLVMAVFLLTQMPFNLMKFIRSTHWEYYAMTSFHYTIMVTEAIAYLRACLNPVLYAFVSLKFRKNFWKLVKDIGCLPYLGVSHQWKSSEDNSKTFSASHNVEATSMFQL

Consider `COc1cc(NC(=O)c2ccnn2C)ccc1S(=O)(=O)Nc1ccccc1OC(F)(F)F` [Example 1.016], for which the IC50 lay in the range of 2 to 20 µM.
As for `CCOc1cc(NC(=O)[C@H]2CCOC[C@@H]2C)ccc1S(=O)(=O)Nc1cccc(OC(F)(F)F)c1` (racemic) [Example 1.477], the IC50 was at most 0.2 µM.
Under `CCOc1cc(NC(=O)[C@@H](CO)C(C)C)ccc1S(=O)(=O)Nc1ccc(Cl)c(C(F)(F)F)c1` [Example 1.523] stands at most 0.2 µM; under `COc1cc(NC(=O)[C@@H]2CCC[C@@H]2N)ccc1S(=O)(=O)Nc1cccc(C(F)(F)F)c1` [Example 1.347], 2 to 20 µM; under `CCOc1cc(NC(=O)C2CCCC(O)C2)ccc1S(=O)(=O)Nc1cccc(OC(F)(F)F)c1` (centres unmarked) [Example 1.545], 0.75 to 2 µM.
Under `COc1cc(NC(=O)[C@@H]2C=CCN2C(=O)OC(C)(C)C)ccc1S(=O)(=O)Nc1cccc(C(F)(F)F)c1` [Example 1.033] stands 2 to 20 µM; under `C=Cc1cc(NS(=O)(=O)c2ccc(NC(=O)[C@@H](O)C(C)C)cc2OCC)ccc1C` [Example 1.286], at most 0.2 µM.
Regarding `CCOCCOCCC(C(=O)O)C(=O)Nc1ccc(S(=O)(=O)Nc2cccc(OC(F)(F)F)c2)c(OCC)c1` (centres unmarked) [Example 1.476], the half-inhibitory concentration (IC50) lay within 0.2 to 0.75 µM.
Turning to `CCOc1cc(NS(=O)(=O)c2ccc(NC(=O)[C@@H](O)C(C)C)cc2OCC)ccc1Cl` [Example 1.210], the IC50 lay in the range of 0.2 to 0.75 µM.
Under `CCOc1cc(NC(=O)C2CCCN(C(=O)OC(C)(C)C)C2)ccc1S(=O)(=O)Nc1cccc(OC(F)(F)F)c1` (centres unmarked) [Example 1.458] stands 2 to 20 µM; under `Cc1cc(NC(=O)c2ccon2)ccc1S(=O)(=O)Nc1cccc(C(F)(F)F)c1` [Example 1.268], 0.75 to 2 µM; under `CCOc1cc(NC(=O)[C@@H](O)c2ccccc2F)ccc1S(=O)(=O)Nc1cccc(OC(F)(F)F)c1` [Example 1.329], at most 0.2 µM.
As for `CCOc1cc(NC(=O)CC(C)O)ccc1S(=O)(=O)Nc1cccc(OC(F)(F)F)c1` (centres unmarked) [Example 1.253], the IC50 lay within 0.2 to 0.75 µM.
As to `Cc1cc(NC(=O)c2cccnc2)ccc1S(=O)(=O)Nc1cccc(C(F)(F)F)c1` [Example 1.330], the IC50 fell in the range of 0.2 to 0.75 µM.
On to `CCOc1cc(NC(=O)C(C(=O)O)C2CCOCC2)ccc1S(=O)(=O)Nc1cccc(OC(F)(F)F)c1` (centres unmarked) [Example 1.377], for which the IC50 is at most 0.2 µM.
As for `COc1cccc(C(=O)Nc2ccc(S(=O)(=O)Nc3cccc(C(F)(F)F)c3)c(C)c2)c1` [Example 1.534], the IC50 fell in the range of 2 to 20 µM.
In the case of `CCOc1cc(NC(=O)[C@@H](NS(C)(=O)=O)C(C)CC)ccc1S(=O)(=O)Nc1cccc(OC(F)(F)F)c1` (some centres unmarked) [Example 1.367], the IC50 fell in the range of 2 to 20 µM.
Under `Cc1cc(NC(=O)c2cccn2C)ccc1S(=O)(=O)Nc1cccc(C(F)(F)F)c1` [Example 1.486] stands 0.75 to 2 µM; under `CCOc1cc(NC(=O)[C@@H]2CCCCC[C@@H]2O)ccc1S(=O)(=O)Nc1cccc(OC(F)(F)F)c1` [Example 1.404], at most 0.2 µM.
`COc1cc(NC(=O)c2ccnn2C)ccc1S(=O)(=O)Nc1cccc(C#N)c1` [Example 1.331]: the IC50 was 2 to 20 µM.
For `CCOc1cc(NC(=O)C(CO)C2CCCCC2)ccc1S(=O)(=O)Nc1cccc(OC(F)(F)F)c1` (centres unmarked) [Example 1.113], the IC50 is at most 0.2 µM.
Consider `CCOc1cc(NC(=O)C2CCNCC2)ccc1S(=O)(=O)Nc1cccc(OC(F)(F)F)c1` [Example 1.427], for which the half-maximal inhibitory concentration (IC50) was 2 to 20 µM.
For `CCOc1cc(NC(=O)[C@@H](O)C(C)C)ccc1S(=O)(=O)Nc1ccc(C2CC2)c(OC(F)(F)F)c1` [Example 1.521], the IC50 was at most 0.2 µM.
Under `CCOc1cc(NC(=O)C2CC=CC[C@@H]2O)ccc1S(=O)(=O)Nc1ccc(C)c(OC(F)(F)F)c1` (some centres unmarked) [Example 1.172] stands at most 0.2 µM.
With `COc1cc(NC(=O)c2cc(C(F)(F)F)nn2C)ccc1S(=O)(=O)Nc1cccc(C(F)(F)F)c1` [Example 1.430], the IC50 is 0.75 to 2 µM.
The figure for `Cc1cc(NC(=O)C2CCOC2)ccc1S(=O)(=O)Nc1cccc(C(F)(F)F)c1` (centres unmarked) [Example 1.249] is 2 to 20 µM; for `CCOc1cc(NC(=O)[C@@H](O)C(C)C)ccc1S(=O)(=O)Nc1ccc(F)c(C)c1` [Example 1.440] it is 0.2 to 0.75 µM.
The figure for `CCOc1cc(NC(=O)[C@@H](O)C(C)C)ccc1S(=O)(=O)Nc1ccc(Cl)c(OC(F)(F)F)c1` [Example 1.533] is at most 0.2 µM; for `CCOc1cc(NC(=O)C(C(=O)O)C2CCCCC2)ccc1S(=O)(=O)Nc1cccc(OC(F)(F)F)c1` (centres unmarked) [Example 1.484] it is at most 0.2 µM.
As for `CCOc1cc(NC(=O)C2CCOCC2)ccc1S(=O)(=O)Nc1ccc(C)c(OC(F)(F)F)c1` [Example 1.123], the IC50 is at most 0.2 µM.
Under `CCOc1cc(NC(=O)C(C(=O)O)C(C)C)ccc1S(=O)(=O)Nc1cccc(OC(F)(F)F)c1` (centres unmarked) [Example 1.217] stands at most 0.2 µM.
Under `CCOc1cc(NC(=O)[C@@H](CO)c2ccccc2)ccc1S(=O)(=O)Nc1cccc(C(F)(F)F)c1` [Example 1.437] stands at most 0.2 µM; under `COc1cc(NC(=O)CC2CC2)ccc1S(=O)(=O)Nc1cccc(C(F)(F)F)c1` [Example 1.414], 2 to 20 µM; under `CCOc1cc(NC(=O)[C@@H](N)C(C)CC)ccc1S(=O)(=O)Nc1cccc(OC(F)(F)F)c1` (some centres unmarked) [Example 1.243], at most 0.2 µM.
Take `CCOc1cc(NC(=O)[C@@H](CO)C2CC2)ccc1S(=O)(=O)Nc1ccc(CC)c(C)c1` [Example 1.135]: the IC50 is at most 0.2 µM.
The figure for `COc1cc(NC(=O)c2ccnn2C)ccc1S(=O)(=O)Nc1ccc(F)c(C(F)(F)F)c1` [Example 1.248] is 0.75 to 2 µM; for `CCOc1cc(NC(=O)c2ccccc2)ccc1S(=O)(=O)Nc1cccc(OC(F)(F)F)c1` [Example 1.073] it is at most 0.2 µM; for `COc1cc(NC(C)=O)cc(F)c1S(=O)(=O)Nc1cccc(OC(F)(F)F)c1` [Example 1.537] it is 2 to 20 µM.
Under `CCOc1cc(NC(=O)C(CC)CO)ccc1S(=O)(=O)Nc1cccc(OC(F)(F)F)c1` (centres unmarked) [Example 1.418] stands at most 0.2 µM; under `CCOc1cc(NC(=O)[C@@H](CO)C(C)C)ccc1S(=O)(=O)Nc1ccc(C)c(CC)c1` [Example 1.356], at most 0.2 µM; under `Cc1cc(NC(=O)C2CCN(C)CC2)ccc1S(=O)(=O)Nc1cccc(C(F)(F)F)c1` [Example 1.522], 2 to 20 µM.
The figure for `CCOc1cc(NC(=O)[C@@H](CO)c2ccccc2)ccc1S(=O)(=O)Nc1ccc(C)c(CC)c1` [Example 1.498] is at most 0.2 µM; for `CCOc1cc(NC(=O)[C@H]2CCCC[C@H]2OC)ccc1S(=O)(=O)Nc1cccc(OC(F)(F)F)c1` [Example 1.449] it is 2 to 20 µM.
On to `CCOc1cc(NC(=O)[C@@H](NC(C)=O)C(C)C)ccc1S(=O)(=O)Nc1ccc(C)c(C(F)(F)F)c1` [Example 1.543], for which the IC50 was at most 0.2 µM.
As for `CCOc1cc(NC(=O)[C@@H](CO)c2ccccc2)ccc1S(=O)(=O)Nc1cccc(Cl)c1Cl` [Example 1.272], the IC50 was 0.75 to 2 µM.
Regarding `CCOc1cc(NC(=O)C(O)c2ccc(C(F)(F)F)cc2)ccc1S(=O)(=O)Nc1cccc(OC(F)(F)F)c1` (centres unmarked) [Example 1.278], the IC50 is 0.2 to 0.75 µM.
The figure for `CCOc1cc(NC(=O)[C@@H](N)C2CC2)ccc1S(=O)(=O)Nc1cccc(OC(F)(F)F)c1` [Example 1.393] is at most 0.2 µM.
As to `CCc1cc(NC(=O)[C@@H](O)C(C)C)ccc1S(=O)(=O)Nc1cccc(OC(F)(F)F)c1` [Example 1.059], the IC50 was at most 0.2 µM.
Under `COc1cc(NC(=O)C(O)C(C)C)ccc1S(=O)(=O)Nc1cccc(C(F)(F)F)c1` (centres unmarked) [Example 1.535] stands at most 0.2 µM; under `CCOc1cc(NC(=O)[C@@H](O)C(C)C)ccc1S(=O)(=O)Nc1ccc(F)c(C(F)(F)F)c1` [Example 1.084], at most 0.2 µM.
With `COc1cc(NC(=O)c2ccccc2)ccc1S(=O)(=O)Nc1cccc(C(F)(F)F)c1` [Example 1.040], the IC50 was in the range of 0.2 to 0.75 µM.
Under `CCOc1cc(NC(=O)CC(O)c2ccnn2C)ccc1S(=O)(=O)Nc1cccc(OC(F)(F)F)c1` (centres unmarked) [Example 1.060] stands 0.75 to 2 µM; under `COc1ccc(NS(=O)(=O)c2ccc(NC(=O)c3ccnn3C)cc2OC)cc1C(F)(F)F` [Example 1.580], 0.2 to 0.75 µM.
As to `CCOc1cc(NC(=O)C2CC=CC[C@H]2N)ccc1S(=O)(=O)Nc1cccc(OC(F)(F)F)c1` (mixture of isomers) [Example 1.026], the IC50 was 0.75 to 2 µM.
The figure for `CCOc1cc(NC(=O)[C@@H](O)C(C)C)ccc1S(=O)(=O)Nc1cccc(Cl)c1C` [Example 1.570] is 0.75 to 2 µM; for `CCOc1cc(NC(=O)C(C(=O)O)C2CCCC2)ccc1S(=O)(=O)Nc1cccc(OC(F)(F)F)c1` (centres unmarked) [Example 1.479] it is at most 0.2 µM.
`CCOc1cc(NC(=O)C2(O)CCCCC2)ccc1S(=O)(=O)Nc1cccc(OC(F)(F)F)c1` [Example 1.083]: the IC50 was in the range of 0.75 to 2 µM.
The figure for `CCc1cc(NC(=O)c2ccccc2)ccc1S(=O)(=O)Nc1cccc(C(F)(F)F)c1` [Example 1.193] is 0.2 to 0.75 µM; for `COc1cc(NC(=O)[C@@H]2C=CCN2)ccc1S(=O)(=O)Nc1cccc(C(F)(F)F)c1` [Example 1.197] it is 0.75 to 2 µM.
In the case of `CCOc1cc(NC(=O)[C@@H](NC(C)=O)C(C)C)ccc1S(=O)(=O)Nc1cccc(OC(F)(F)F)c1` [Example 1.415], the IC50 was at most 0.2 µM.
As for `CCOc1cc(NC(=O)Cc2ccccc2OC)ccc1S(=O)(=O)Nc1cccc(OC(F)(F)F)c1` [Example 1.566], the IC50 lay within 0.2 to 0.75 µM.
In the case of `CCOc1cc(NC(=O)[C@@H](N)c2ccccc2)ccc1S(=O)(=O)Nc1ccc(F)c(OC(F)(F)F)c1` [Example 1.560], the IC50 is at most 0.2 µM.
In the case of `CCCOc1cc(NC(=O)[C@@H](CO)C(C)C)ccc1S(=O)(=O)Nc1cccc(OC(F)(F)F)c1` [Example 1.551], the IC50 was at most 0.2 µM.
Under `COc1cc(NC(=O)CC2CCNC2)ccc1S(=O)(=O)Nc1cccc(C(F)(F)F)c1` (centres unmarked) [Example 1.214] stands 2 to 20 µM; under `CCOc1cc(NC(=O)c2cccn(C)c2=O)ccc1S(=O)(=O)Nc1cccc(OC(F)(F)F)c1` [Example 1.260], 2 to 20 µM.
